The values that follow come from article PMC5513037, “Examining the influence of specificity ligands and ATP-competitive ligands on the overall effectiveness of bivalent kinase inhibitors” (Proteome Science, 2017).

Holding throughout (experiment): KAM-matrix competition in K562 lysate
Format in all cases: binding

Experiment [1] has as its target T1, NME7 (Homo sapiens, UniProt Q9Y5B8).
T1 construct: endogenous in cells; host or cells: K562
T1 sequence (Q9Y5B8 1-376): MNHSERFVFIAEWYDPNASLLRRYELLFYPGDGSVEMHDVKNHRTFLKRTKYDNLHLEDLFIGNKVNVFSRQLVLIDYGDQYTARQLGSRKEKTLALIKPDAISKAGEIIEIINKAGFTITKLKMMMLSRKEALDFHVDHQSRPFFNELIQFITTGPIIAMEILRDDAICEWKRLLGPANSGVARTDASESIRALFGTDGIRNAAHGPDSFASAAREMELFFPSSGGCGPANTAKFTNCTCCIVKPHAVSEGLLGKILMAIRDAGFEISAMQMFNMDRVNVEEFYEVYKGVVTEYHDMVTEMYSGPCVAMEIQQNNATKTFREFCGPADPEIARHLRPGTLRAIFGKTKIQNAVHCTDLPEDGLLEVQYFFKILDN
How it is done:
(§1) Supplement 12953_2017_125_MOESM1_ESM.zip/MS_Supp Info.xlsx, sheet "KAM" | column: 10 uM KAM; 1 uM KAM; 0.1 uM KAM; 0.01 uM KAM; 0.001 uM KAM; RB50

The target of experiment [2] is T2, NEK1 (Homo sapiens, UniProt Q96PY6).
T2 construct: endogenous in cells; host or cells: K562
T2 sequence (Q96PY6 1-1258): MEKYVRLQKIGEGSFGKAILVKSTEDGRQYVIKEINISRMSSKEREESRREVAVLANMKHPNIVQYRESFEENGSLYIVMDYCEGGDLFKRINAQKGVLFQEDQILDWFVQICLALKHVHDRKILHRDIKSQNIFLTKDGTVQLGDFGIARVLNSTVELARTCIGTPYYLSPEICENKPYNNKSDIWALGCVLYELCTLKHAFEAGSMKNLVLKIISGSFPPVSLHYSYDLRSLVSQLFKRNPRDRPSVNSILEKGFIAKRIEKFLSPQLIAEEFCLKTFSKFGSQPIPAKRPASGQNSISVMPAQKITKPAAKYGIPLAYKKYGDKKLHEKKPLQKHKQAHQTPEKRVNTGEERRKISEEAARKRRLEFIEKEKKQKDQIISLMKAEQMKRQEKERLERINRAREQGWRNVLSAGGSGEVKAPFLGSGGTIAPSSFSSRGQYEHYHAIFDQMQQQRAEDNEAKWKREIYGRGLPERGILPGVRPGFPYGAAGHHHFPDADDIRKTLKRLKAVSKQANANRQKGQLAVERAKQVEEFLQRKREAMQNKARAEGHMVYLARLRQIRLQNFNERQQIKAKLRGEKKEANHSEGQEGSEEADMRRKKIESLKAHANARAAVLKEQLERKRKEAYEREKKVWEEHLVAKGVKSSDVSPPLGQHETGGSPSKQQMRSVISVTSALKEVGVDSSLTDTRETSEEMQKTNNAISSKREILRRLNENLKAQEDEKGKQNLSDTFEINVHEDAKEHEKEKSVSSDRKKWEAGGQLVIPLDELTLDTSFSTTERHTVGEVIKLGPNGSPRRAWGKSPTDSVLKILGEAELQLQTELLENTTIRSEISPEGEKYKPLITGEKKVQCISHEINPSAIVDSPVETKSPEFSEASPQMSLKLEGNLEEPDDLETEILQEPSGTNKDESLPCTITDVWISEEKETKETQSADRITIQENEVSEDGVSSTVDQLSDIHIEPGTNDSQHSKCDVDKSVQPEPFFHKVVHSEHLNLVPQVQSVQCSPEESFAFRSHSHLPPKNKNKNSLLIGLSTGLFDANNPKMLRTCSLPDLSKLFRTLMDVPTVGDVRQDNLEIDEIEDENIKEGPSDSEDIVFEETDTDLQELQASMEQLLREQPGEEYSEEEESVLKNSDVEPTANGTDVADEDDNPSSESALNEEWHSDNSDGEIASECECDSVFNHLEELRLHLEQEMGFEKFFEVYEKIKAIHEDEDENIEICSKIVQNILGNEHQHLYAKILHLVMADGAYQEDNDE
How it is done:
as §1

Experiment [3] concerns the target T3, WEE1 (Homo sapiens, UniProt P30291).
T3 construct: endogenous in cells; host or cells: K562
How it is done:
as §1

Setting [4] is: read-out: RB50 (the source's name).

Each structure is given as a SMILES string.
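Wherever 0.001 uM KAM is given: median log10 fold change of treatment over DMSO control.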
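Wherever 0.01 uM KAM is given: median log10 fold change of treatment over DMSO control.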
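Wherever 0.1 uM KAM is given: median log10 fold change of treatment over DMSO control.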
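Wherever 1 uM KAM is given: median log10 fold change of treatment over DMSO control.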
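Wherever 10 uM KAM is given: median log10 fold change of treatment over DMSO control.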

T3 sequence (P30291 whole entry): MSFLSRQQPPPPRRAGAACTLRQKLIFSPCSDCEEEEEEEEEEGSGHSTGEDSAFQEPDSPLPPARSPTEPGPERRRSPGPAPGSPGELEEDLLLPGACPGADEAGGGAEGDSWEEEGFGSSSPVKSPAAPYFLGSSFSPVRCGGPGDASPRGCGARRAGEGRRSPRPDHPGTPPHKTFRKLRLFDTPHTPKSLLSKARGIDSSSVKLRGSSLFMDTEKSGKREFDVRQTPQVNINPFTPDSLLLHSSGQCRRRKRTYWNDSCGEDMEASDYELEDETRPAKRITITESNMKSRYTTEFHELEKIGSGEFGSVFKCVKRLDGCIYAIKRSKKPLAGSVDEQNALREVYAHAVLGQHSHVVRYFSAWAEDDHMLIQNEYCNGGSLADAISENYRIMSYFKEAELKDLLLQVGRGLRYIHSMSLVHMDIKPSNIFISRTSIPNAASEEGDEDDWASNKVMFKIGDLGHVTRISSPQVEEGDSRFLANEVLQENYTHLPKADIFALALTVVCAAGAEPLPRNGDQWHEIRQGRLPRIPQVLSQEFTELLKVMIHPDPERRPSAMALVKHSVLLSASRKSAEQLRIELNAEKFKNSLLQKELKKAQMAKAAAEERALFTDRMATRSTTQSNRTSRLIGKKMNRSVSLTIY

Regarding `N#CCc1ccc(Nc2nc(NCCCN)cc(Nc3cc(C4CC4)[nH]n3)n2)cc1` [KAM], the IC50 in experiment [1] (KAM 0.001-10 uM, read-out: RB50 (the source's name)) was greater than 10 µM; in experiment [2] (setting [4]), 3.39 µM; in experiment [3] (setting [4]), 1.32 µM. In experiment [1] (relative to 0 uM KAM = 0), the “0.001 uM KAM” value was -0.02057. The “0.01 uM KAM” value in experiment [1] (relative to 0 uM KAM = 0) is -0.007814. The “0.1 uM KAM” value in experiment [1] (relative to 0 uM KAM = 0) is reported as 0.03797. For the same compound, the “1 uM KAM” value in experiment [1] (relative to 0 uM KAM = 0) was 0.05362. For the same compound, in experiment [1] (relative to 0 uM KAM = 0), the “10 uM KAM” value is 0.03977. The “median Log10 fold change” value is recorded as -0.02178 in experiment [2] (0.001 uM KAM); -0.02485 in experiment [2] (0.01 uM KAM); -0.1728 in experiment [2] (0.1 uM KAM); -0.239 in experiment [2] (1 uM KAM); -0.318 in experiment [2] (10 uM KAM); -0.01698 in experiment [3] (0.001 uM KAM). Besides, the “median Log10 fold change” value is given as -0.006292 in experiment [3] (0.01 uM KAM), -0.1327 in experiment [3] (0.1 uM KAM), -0.2838 in experiment [3] (1 uM KAM) and -0.4489 in experiment [3] (10 uM KAM).
